Experimental data: patent publication US20220112178A1, “Small Molecule Modulators of RAS GTPase” (Tosk, Inc., priority 2020, published 2022)

System: SW620 cells
Test: Cell proliferation / cytotoxicity assay (CellTiter-Glo) in SW620 cells
Format: cell-based
Conditions: SW620 cells (ATCC CCL-227), 72 hours, CellTiter-Glo 2.0 luminescence
Method: Compounds are assayed for inhibition of cell proliferation and killing cancer cells. Cytotoxicity assays are conducted according to the following general procedure. SW620 cells (ATCC CCL-227) are maintained in DMEM Low Glucose (Corning 10-014-CV) media supplemented with 10% fetal bovine serum and 1% PenStrep and grown at 37° C. in 5% CO2. Cells are plated into 96 well flat bottom plates (2 million/plate, ˜20,000/well, 200 μL media/well). The cells are allowed to settle and adhere to the plate bottom overnight. Compounds are diluted in media from a 10 mM stock solution starting at 50 μM, using 2-fold dilutions, in a column in a 96-well plate. Media is removed from the plate containing cells and replaced with media containing diluted compounds, Plates are incubated 72 hours at 37° C. in 5% CO2. Plates are allowed to come to room temperature and 100 μL CellTiter-Glo 2.0 reagent (Promega, G924C) is added at room temperature. Plates are shaken for 2 minutes, then allowed to stand for 15 minutes. Luminescence is read with FLx800 (BioTek Instruments). Data is plotted with GraphPad Prizm 8.0.

| SMILES | IC50 (Homo sapiens, SW-620) | other results |
| --- | --- | --- |
| Cc1nc(N[C@@H]2CC[C@H](NC(=O)OC(C)(C)C)C2)nc2ccc(-c3ccnc4c3OCCO4)c(F)c12 [Compound 43] | < 5 µM |  |
| C=CC(=O)N[C@H]1CC[C@@H](Nc2nc(C)c3cc(-c4ccnc5c4OCCO5)ccc3n2)C1 [Compound 42] | < 5 µM |  |
| Cc1nc(N[C@@H]2CC[C@H](NC(=O)OC(C)(C)C)C2)nc2ccc(-c3c(Cl)cnc4c3OCCO4)cc12 [Compound 44] | < 5 µM |  |
| Cc1nc(N[C@@H]2CC[C@H](NC(=O)OCc3ccon3)C2)nc2ccc(-c3ccnc4c3OCCO4)cc12 [Compound 36] | < 5 µM |  |
| Cc1ccc2ccc(F)c(-c3ccc4nc(N[C@@H]5CC[C@@H](NC(=O)OC(C)(C)C)C5)nc(C)c4c3)c2n1 [Compound 12] | 5 to 10 µM |  |
| Cc1nc(N[C@@H]2CC[C@H](NC(=O)OCc3ccno3)C2)nc2ccc(-c3ccnc4c3OCCO4)cc12 [Compound 40] | < 5 µM |  |
| COc1ncccc1-c1ccc2nc(N[C@@H]3CC[C@H](NC(=O)OC(C)(C)C)C3)nc(C)c2c1 [Compound 31] | 5 to 10 µM |  |
| COc1nccc(-c2ccc3nc(N[C@@H]4CC[C@H](NC(=O)OC(C)(C)C)C4)nc(C)c3c2)c1Cl [Compound 21] | 5 to 10 µM |  |
| Cc1nc(N[C@@H]2CC[C@H](NC(=O)c3ccc(Cl)cc3)C2)nc2ccc(-c3cccc4c3OCCO4)cc12 [Compound 2] | 5 to 10 µM |  |
| Cc1nc(N[C@@H]2CC[C@H](NC(=O)C(C)(C)C)C2)nc2ccc(-c3ccnc4c3OCCO4)cc12 [Compound 27] | < 5 µM |  |
| Cc1nc(N[C@@H]2CC[C@H](N3Cc4ccccc4CC3=O)C2)nc2ccc(-c3cccc4c3OCCO4)cc12 [Compound 3] | 5 to 10 µM |  |
| Cc1nccc(-c2ccc3nc(N[C@@H]4CC[C@H](NC(=O)OC(C)(C)C)C4)nc(C)c3c2)c1Cl [Compound 16] | 5 to 10 µM |  |
| Cc1nc(N[C@@H]2CC[C@H](NC(=O)O[C@@H]3CCN(C)C3)C2)nc2ccc(-c3ccnc4c3OCCO4)cc12 [Compound 39] | < 5 µM |  |
| Cc1nc(N[C@@H]2CC[C@@H](NC(=O)OC(C)(C)C)C2)nc2ccc(-c3ccnc4c3OCCO4)cc12 [Compound 11] | < 5 µM |  |
| Cc1nc(N[C@@H]2CC[C@H](NC(=O)c3nnn(C(C)(C)C)n3)C2)nc2ccc(-c3ccnc4c3OCCO4)c(F)c12 [Compound 48] | < 5 µM |  |
| Cc1nc(N[C@@H]2CCN(Cc3ccc(Cl)cc3)C2)nc2ccc(-c3cccc4c3CCCC4)cc12 [Compound 92] |  | IC50 (Homo sapiens, SW-620, Table 2): 5 to 10 µM |
| Cc1ccc2ccc(F)c(-c3ccc4nc(N[C@@H]5CC[C@H](NC(=O)OC(C)(C)C)C5)nc(C)c4c3)c2n1 [Compound 15] | 5 to 10 µM |  |
| Cc1nc(N[C@@H]2CC[C@H](NC(=O)O[C@H]3CCN(C)C3)C2)nc2ccc(-c3ccnc4c3OCCO4)cc12 [Compound 33] | < 5 µM |  |
| Cc1nc(N[C@@H]2CC[C@H](NC(=O)OC[C@H]3CCCN3C)C2)nc2ccc(-c3ccnc4c3OCCO4)cc12 [Compound 37] | < 5 µM |  |
| Cc1ccc2ccc(F)c(-c3ccc4nc(N[C@@H]5CC[C@H](NC(=O)OC(C)(C)C)C5)nc(C)c4c3)c2n1 [Compound 30] |  | IC50: 5 to 10 µM |
| Cc1nc(N[C@@H]2CC[C@H](NC(=O)OC(C)(C)C)C2)nc2ccc(-c3ccnc4c3OCCO4)cc12 [Compound 17] |  | IC50: < 5 µM |
| Cc1nc(N[C@H]2CCN(Cc3ccc(Cl)cc3)C2)nc2ccc(-c3cccc4c3CCCC4)cc12 [Compound 91] |  | IC50 (Homo sapiens, SW-620, Table 2): < 5 µM |
| COc1c(Cl)cccc1-c1ccc2nc(N[C@@H]3CC[C@H](NC(=O)OC(C)(C)C)C3)nc(C)c2c1 [Compound 22] | 5 to 10 µM |  |

| SMILES | IC50 (Homo sapiens, SW-620) | other results |
| --- | --- | --- |
| Cc1nc(N[C@@H]2CC[C@H](NC(=O)c3ccccc3Cl)C2)nc2ccc(-c3ccnc4c3OCCO4)cc12 [Compound 6] | < 5 µM |  |
| Cc1nc(N[C@H]2CC[C@@H](NC(=O)OC(C)(C)C)C2)nc2ccc(-c3ccnc4c3OCCO4)cc12 [Compound 18] | < 5 µM |  |
| Cc1nccc(-c2ccc3nc(N[C@@H]4CC[C@H](NC(=O)c5ccc(Cl)cc5)C4)nc(C)c3c2)c1Cl [Compound 9] | < 5 µM |  |
| Cc1nc(N[C@@H]2CC[C@H](N)C2)nc2ccc(-c3ccnc4c3OCCO4)cc12 [Compound 10] | 5 to 10 µM |  |
| Cc1nc(N[C@@H]2CC[C@H](NC(=O)OC(C)(C)C)C2)nc2ccc(-c3cc[n+]([O-])c4c3OCCO4)cc12 [Compound 45] | < 5 µM |  |
| Cc1nc(N[C@@H]2CC[C@H](NC(=O)OC(C)(C)C)C2)nc2ccc(-c3cccc4c3OCCO4)cc12 [Compound 1] | 5 to 10 µM |  |
| Cc1nc(N[C@@H]2CC[C@H](NC(=O)c3ccc(Cl)cc3)C2)nc2ccc(-c3ccnc4c3OCCO4)cc12 [Compound 8] | < 5 µM |  |
| Cc1cc(COC(=O)N[C@H]2CC[C@@H](Nc3nc(C)c4cc(-c5ccnc6c5OCCO6)ccc4n3)C2)on1 [Compound 41] | < 5 µM |  |
| Cc1nc(N[C@@H]2CC[C@H](NC(=O)c3ccc(Cl)cc3)C2)nc2ccc(-c3cccc4c3CCCC4)cc12 [Compound 5] | < 5 µM |  |
| Cc1ncccc1C(=O)N[C@H]1CC[C@@H](Nc2nc(C)c3cc(-c4ccnc5c4OCCO5)ccc3n2)C1 [Compound 14] | < 5 µM |  |
| Cc1nc(N[C@@H]2CC[C@H](NC(=O)Cn3cccn3)C2)nc2ccc(-c3cccc4c3CCCC4)cc12 [Compound 29] | < 5 µM |  |
| Cc1nc(N[C@@H]2CC[C@H](NC(=O)OCc3nccn3C)C2)nc2ccc(-c3ccnc4c3OCCO4)cc12 [Compound 34] | < 5 µM |  |
| Cc1nc(N[C@@H]2CC[C@H](NC(=O)OC(C)(C)C)C2)[n+]([O-])c2ccc(-c3ccnc4c3OCCO4)cc12 [Compound 46] | < 5 µM |  |
| Cc1nc(N[C@@H]2CC[C@H](NC(=O)OC(C)(C)C)C2)nc2ccc(-c3ccnc4c3OCCO4)cc12 [Compound 19] |  | IC50: < 5 µM |
| Cc1nc(N[C@@H]2CC[C@H](NC(=O)OCc3ncco3)C2)nc2ccc(-c3ccnc4c3OCCO4)cc12 [Compound 35] | < 5 µM |  |
| Cc1nc(N[C@@H]2CC[C@H](NC(=O)c3nnn(C(C)(C)C)n3)C2)nc2ccc(-c3ccnc4c3OCCO4)cc12 [Compound 47] | < 5 µM |  |
| Cc1nn(C)c(C(=O)N[C@H]2CC[C@@H](Nc3nc(C)c4cc(-c5ccnc6c5OCCO6)ccc4n3)C2)c1Cl [Compound 13] | < 5 µM |  |
| Cc1nc(N[C@@H]2CC[C@H](N3CCNC3=O)C2)nc2ccc(-c3ccnc4c3OCCO4)cc12 [Compound 26] | 5 to 10 µM |  |
| Cc1nc(N[C@@H]2CC[C@H](NC(=O)OC(C)(C)C)C2)nc2ccc(-c3ccnc4c3OCCO4)cc12 [Compound 4] | < 5 µM |  |
| Cc1nc(N[C@@H]2CC[C@H](NC(=O)OC[C@@H]3CCCN3C)C2)nc2ccc(-c3ccnc4c3OCCO4)cc12 [Compound 38] | < 5 µM |  |
| Cc1ccc2ccc(F)c(-c3ccc4nc(N[C@H]5CC[C@@H](NC(=O)OC(C)(C)C)C5)nc(C)c4c3)c2n1 [Compound 28] | 5 to 10 µM |  |
| Cc1nc(N[C@@H]2CC[C@H](N3Cc4ccccc4CC3=O)C2)nc2ccc(-c3ccnc4c3OCCO4)cc12 [Compound 7] | 5 to 10 µM |  |
| Cc1nc(N[C@@H]2CC[C@H](NS(=O)(=O)c3ccc(C#N)cc3)C2)nc2ccc(-c3ccnc4c3OCCO4)cc12 [Compound 32] | < 5 µM |  |
